Reference: US20220202899A1, “COMPOSITION FOR PREVENTION OR TREATMENT OF HAIR LOSS INCLUDING HAPLN1” (HAPLNSCIENCE INC., priority 2019, published 2022)

Experiments:
TβRII [1] = assay: TβRII protein in human hair germinal matrix cells treated with HAPLN1 and/or HA, then TGF-β2 (Western blotting); assay type: cell-based; details: HAPLN1 25 ng/mL or HA 25 μg/mL alone; TGF-β2 2 ng/mL after 1 hour; 23 hours
Protocol: Human hair germinal matrix cells were dispensed into a poly-D-lysine 6-well plate at a concentration of 5.0×10^4 per well and cultured for 24 hours. After 24 hours, the medium was removed and replaced with a new serum-free medium. HAPLN1 was treated with 25 ng/mL, HA was treated with 25 μg/mL, and after 1 hour, TGF-β2 (2 ng/mL) was treated. After 23 hours, cells were collected, a lysis buffer (25 mM Tris-HCl, 1 mM EDTA, 0.1% Triton-X100, phosphatase inhibitor, and protease inhibitor) was added, and all the cells were broken through sonication. TβRI and TβRII in the sample were measured using Western blotting. The optical density of TβRII was compared to that of GAPDH using a densitometer.

TβRII [2] = assay: TβRII protein after exogenous HAPLN1 and/or HA in endogenous HAPLN1-deficient human hair germinal matrix cells; assay type: cell-based; details: after HAPLN1 siRNA; HAPLN1 25 ng/mL and/or HA 25 μg/mL; TGF-β2 2 ng/mL, 23 hours
Protocol: (§1) The human hair germinal matrix cells were dispensed into a poly-D-lysine 6-well plate at a concentration of 5.0×10^4 per well and cultured for 24 hours. After 24 hours, the medium was removed and replaced with a low-serum medium. HAPLN1 siRNA and scrambled siRNA were added at a concentration of 25 pmol per well and incubated for 24 hours. After the siRNA and the medium were all removed, the medium was replaced with a serum-free medium having HAPLN1 (25 ng/mL) or HA (25 μg/mL) added thereto, and cultured for 1 hour. TGF-β2 (2 ng/mL) was treated and incubated for 23 hours. After collecting cells, a lysis buffer (25 mM Tris-HCl, 1 mM EDTA, 0.1% Triton-X100, phosphatase inhibitor, and protease inhibitor) was added, and all the cells were broken through sonication. TβRII in the sample was measured using Western blotting. The optical density of TβRII was compared to that of GAPDH using a densitometer.

TβRII [3] = assay: TβRII protein after HAPLN1 and/or HA in CD44-deficient human hair germinal matrix cells; assay type: cell-based; details: after CD44 siRNA; HAPLN1 25 ng/mL and/or HA 25 μg/mL; TGF-β2 2 ng/mL, 23 hours
Protocol: as §1, with “matrix cells, which were made to be deficient in CD44 by using CD44 siRNA,” for “matrix cells”, “medium. CD44” for “medium. HAPLN1”

cell membrane TβRII = assay: Cell membrane TβRII protein (biotin labelling, immunoprecipitation, Western blotting); assay type: cell-based, human; details: HAPLN1 25 ng/mL and/or HA 25 μg/mL; TGF-β2 2 ng/mL
Protocol: All proteins present in the cell membrane were labeled with biotin, and immunoprecipitation was performed with a biotin antibody to isolate only the cell membrane protein. In order to confirm changes in the ratio of TβRII among cell membrane proteins, Western blotting was performed. The specific experimental method will now be described.
Human hair germinal matrix cells were dispensed into a poly-D-lysine 100 mm dish at a concentration of 2.7×10^6 and cultured for 24 hours. After 24 hours, the medium was removed and replaced with a new serum-free medium. HAPLN1 was treated with 25 ng/mL and HA with 25 μg/mL, and after 1 hour, TGF-β2 (2 ng/mL) was treated. To label biotin after 23 hours, EZ-Link™ Sulfo-NHS-LC-Biotin (Thermo Fisher Scientific, MA, USA) was treated at a concentration of 250 μg/mL and incubated at 4° C. for 1 hour. The biotin labeling reaction was terminated by treatment with 50 mM Tris-HCl. After collecting cells, a lysis buffer (50 mM Tris-HCl, 150 mM NaCl, 1% NP-40, phosphatase inhibitor, and protease inhibitor) was added, and all the cells were broken through sonication. Cell membrane proteins were isolated by performing immunoprecipitation experiments using anti-biotin antibodies. TβRII in the isolated membrane protein sample was measured using Western blotting. The optical density of TβRII was compared to that of GAPDH using a densitometer.

p-ERK1/2 = p-ERK1/2 in human hair germinal matrix cells stimulated with TGF-β2 (Western blotting); assay type: cell-based; details: HAPLN1 25 ng/mL and/or HA 25 μg/mL, 23 hours; TGF-β2 2 ng/mL, 1 hour
Protocol: (§2) Human hair germinal matrix cells were dispensed into a poly-D-lysine 6-well plate at a concentration of 5.0×10^4 per well and cultured for 24 hours. After 24 hours, the medium was removed and replaced with a new serum-free medium. HAPLN1 was treated with 25 ng/mL and HA with 25 μg/mL, incubated for 23 hours, and then stimulated with TGF-β2 (2 ng/mL) for 1 hour. After collecting cells, a lysis buffer (25 mM Tris-HCl, 1 mM EDTA, 0.1% Triton-X100, phosphatase inhibitor, and protease inhibitor) was added, and all the cells were broken through sonication. p-ERK1/2, p-Smad2, p-MEK1/2, and p-c-Raf in the sample were measured using Western blotting. Optical densities of p-ERK1/2, p-Smad2, p-MEK1/2, and p-c-Raf were compared to those of ERK1/2, Smad2/3, MEK1, and c-Raf using a densitometer. Here, ERK1/2, Smad2/3, MEK1, and c-Raf were used as loading controls.

p-Smad2 = p-Smad2 in human hair germinal matrix cells stimulated with TGF-β2 (Western blotting); assay type: cell-based; details: HAPLN1 25 ng/mL and/or HA 25 μg/mL; TGF-β2 2 ng/mL, 1 hour
Protocol: as §2

p-MEK1/2 = p-MEK1/2 in human hair germinal matrix cells stimulated with TGF-β2 (Western blotting); assay type: cell-based; details: HAPLN1 25 ng/mL and/or HA 25 μg/mL; TGF-β2 2 ng/mL, 1 hour
Protocol: as §2

p-c-Raf = p-c-Raf in human hair germinal matrix cells stimulated with TGF-β2 (Western blotting); assay type: cell-based; details: HAPLN1 25 ng/mL and/or HA 25 μg/mL; TGF-β2 2 ng/mL, 1 hour
Protocol: as §2

[4] = system: human hair germinal matrix cells; assay: Cell proliferation of human hair germinal matrix cells, CCK-8 (Example 10); assay type: cell-based; details: HAPLN1 25 ng/mL and/or HA 25 μg/mL; TGF-β2 2 ng/mL, 23 hours
Protocol: Human hair germinal matrix cells were dispensed into a poly-D-lysine 96-well plate at a concentration of 2.0×10^4 per well and cultured for 24 hours. After 24 hours, the medium was removed and replaced with a new serum-free medium. HAPLN1 was treated with 25 ng/mL and HA with 25 μg/mL, incubated for 1 hour, and then stimulated with TGF-β2 (2 ng/mL) for 23 hours. CCK-8 (Enzo Biochem, NY, USA) was treated and incubated at 37° C. for 1 hour.

[5] = system: human dermal papilla cells; assay: Dermal papilla cell proliferating effect, CCK-8 (Example 13); assay type: cell-based; details: proteins 25 ng/ml, minoxidil 10 μM; TGF-β2 (2 ng/ml) present or absent
Protocol: Human dermal papilla cells were cultured in a 37° C., 5% CO2 incubator using a dermal papilla cell proliferation medium (Promocell). When the cells were about 90% full, the cells were detached with a 0.05% Trypsin/EDTA solution and then centrifuged at 1000 rpm for 3 minutes to recover only the cells. The cells were dispensed into a 96-well plate at 2.0×10^3 per well, cultured for 24 hours, and HAPLN1, CX3CL1 and CDON were diluted to have a final concentration of 25 ng/ml in serum-free medium. After removing the existing culture medium, 200 μl of diluted HAPLN1, CX3CL1, and CDON were dispensed into each well and cultured for 1 hour. To reduce an experimental variation, 3 wells per group were treated (triplication). In addition, minoxidil, which is known to proliferate dermal papilla cells, was treated with 10 μM and set as a positive control.
(§3) In the same manner as described above, HAPLN1 (25 ng/ml), CX3CL1 (25 ng/ml), CDON (25 ng/ml) or minoxidil (10 μM), and human recombinant TGF-β2 were diluted to a final concentration of 2 ng/ml, and the medium of the group containing TGF-β2 was replaced by 200 μl. To reduce an experimental variation, 3 wells per group were treated (triplication).
(§4) After incubation for 23 hours, the plate was removed from the incubator, and 20 μl of CCK-8 (WST-8) solution was added to the plate containing the medium and the reagent per 200 μl of the medium for the reaction to be carried out at 37° C. for 1 hour.

[6] = system: human hair germinal matrix cells; assay: Hair germinal matrix cell proliferating effect, CCK-8 (Example 13); assay type: cell-based; details: 25 ng/ml; TGF-β2 condition not given
Protocol: as §3, §4
Human hair germinal matrix cells were released in a poly-D-lysine-coated flask using a mesenchymal stem cell medium (MSCM), and cultured in a 5% CO2 incubator at 37° C. When the cells were about 90% full, the cells were detached with a 0.05% Trypsin/EDTA solution, and then only the cells were recovered by centrifugation at 1000 rpm for 3 minutes. The recovered cells were dispensed into 96-well poly-D-lysine coated plates (BD bioscience) at 2.0×10^3 per well and cultured for 24 hours, and the final concentrations of HAPLN1, CX3CL1 and CDON were diluted to 25 ng/ml in a serum-free medium. The subsequent process was performed in the same manner as the experiment for the dermal papilla cells to measure the absorbance, and the results are shown in FIG. 22.

Hyaluronic acid [HA, reference compound]
TβRII protein (optical density compared to GAPDH) (TβRII [1]): increased | TβRII protein in endogenous HAPLN1-deficient cells (TβRII [2]): recovered | TβRII protein in CD44-deficient cells (TβRII [3]): not confirmed that TβRII was recovered | cell membrane TβRII protein concentration (cell membrane TβRII): increased | ERK1/2 signaling (p-ERK1/2 compared to ERK1/2) (p-ERK1/2): activated | phosphorylation of Smad2 (p-Smad2): no change | MEK1/2 activity (p-MEK1/2 compared to MEK1) (p-MEK1/2): increased activities | c-Raf activity (p-c-Raf compared to c-Raf) (p-c-Raf): increased activities | cell proliferation (absorbance at 450 nm) compared to the control group [4]: promoted

B1: CDON: protein expressed by a cell adhesion gene present in dermal papilla cells (protein, UniProt Q4KMG0 26-1287, looked up)
Cell adhesion …: DLAPYFTSEPLSAVQKLGGPVVLHCSAQPVTTRISWLHNGKTLDGNLEHVKIHQGTLTILSLNSSLLGYYQCLANNSIGAIVSGPATVSVAVLGDFGSSTKHVITAEEKSAGFIGCRVPESNPKAEVRYKIRGKWLEHSTENYLILPSGNLQILNVSLEDKGSYKCAAYNPVTHQLKVEPIGRKLLVSRPSSDDVHILHPTHSQALAVLSRSPVTLECVVSGVPAPQVYWLKDGQDIAPGSNWRRLYSHLATDSVDPADSGNYSCMAGNKSGDVKYVTYMVNVLEHASISKGLQDQIVSLGATVHFTCDVHGNPAPNCTWFHNAQPIHPSARHLTAGNGLKISGVTVEDVGMYQCVADNGIGFMHSTGRLEIENDGGFKPVIITAPVSAKVADGDFVTLSCNASGLPVPVIRWYDSHGLITSHPSQVLRSKSRKSQLSRPEGLNLEPVYFVLSQAGASSLHIQAVTQEHAGKYICEAANEHGTTQAEASLMVVPFETNTKAETVTLPDAAQNDDRSKRDGSETGLLSSFPVKVHPSAVESAPEKNASGISVPDAPIILSPPQTHTPDTYNLVWRAGKDGGLPINAYFVKYRKLDDGVGMLGSWHTVRVPGSENELHLAELEPSSLYEVLMVARSAAGEGQPAMLTFRTSKEKTASSKNTQASSPPVGIPKYPVVSEAANNNFGVVLTDSSRHSGVPEAPDRPTISTASETSVYVTWIPRANGGSPITAFKVEYKRMRTSNWLVAAEDIPPSKLSVEVRSLEPGSTYKFRVIAINHYGESFRSSASRPYQVVGFPNRFSSRPITGPHIAYTEAVSDTQIMLKWTYIPSSNNNTPIQGFYIYYRPTDSDNDSDYKRDVVEGSKQWHMIGHLQPETSYDIKMQCFNEGGESEFSNVMICETKVKRVPGASEYPVKDLSTPPNSLGSGGNVGPATSPARSSDMLYLIVGCVLGVMVLILMVFIAMCLWKNRQQNTIQKYDPPGYLYQGSDMNGQMVDYTTLSGASQINGNVHGGFLTNGGLSSGYSHLHHKVPNAVNGIVNGSLNGGLYSGHSNSLTRTHVDFEHPHHLVNGGGMYTAVPQIDPLECVNCRNCRNNNRCFTKTNSTFSSSPPPVVPVVAPYPQDGLEMKPLSHVKVPVCLTSAVPDCGQLPEESVKDNVEPVPTQRTCCQDIVNDVSSDGSEDPAEFSRGQEGMINLRIPDHLQLAKSCVWEGDSCAHSETEINIVSWNALILPPVPEGCAEKTMWSPPGIPLDSPTEVLQQPRET
dermal papilla cell proliferation (absorbance at 450 nm) [5]: did not proliferate dermal papilla cells or rather inhibited proliferation thereof | hair germinal matrix cell proliferation (absorbance at 450 nm) [6]: inhibiting cell proliferation

B2: CX3CL1: protein expressed by a cell adhesion gene present in dermal papilla cells (protein, UniProt P78423 25-397, looked up)
Fractalkine: QHHGVTKCNITCSKMTSKIPVALLIHYQQNQASCGKRAIILETRQHRLFCADPKEQWVKDAMQHLDRQAAALTRNGGTFEKQIGEVKPRTTPAAGGMDESVVLEPEATGESSSLEPTPSSQEAQRALGTSPELPTGVTGSSGTRLPPTPKAQDGGPVGTELFRVPPVSTAATWQSSAPHQPGPSLWAEAKTSEAPSTQDPSTQASTASSPAPEENAPSEGQRVWGQGQSPRPENSLEREEMGPVPAHTDAFQDWGPGSMAHVSVVPVSSEGTPSREPVASGSWTPKAEEPIHATMDPQRLGVLITPVPDAQAATRRQAVGLLAFLGLLFCLGVAMFTYQSLQGCPRKMAGEMAEGLRYIPRSCGSNSYVLVPV
dermal papilla cell proliferation (absorbance at 450 nm) [5]: did not proliferate dermal papilla cells or rather inhibited proliferation thereof | hair germinal matrix cell proliferation (absorbance at 450 nm) [6]: inhibiting cell proliferation
